Each structure is given as a SMILES string.

The values that follow come from patent publication US9669034B2, “4-aryl-N-phenyl-1,3,5-triazin-2-amines containing a sulfoximine group” (BAYER INTELLECTUAL PROPERTY GMBH, priority 2011, dated 2017).

The target in test [1] is CDK2/CycE (Homo sapiens (Human), UniProt P24941). Kind of test: CDK2/CycE kinase assay (TR-FRET). It counts as biochemical. Conditions: Method 2. The text has this: 2. CDK2/CycE Kinase Assay:
CDK2/CycE—inhibitory activity of compounds of the present invention was quantified employing the CDK2/CycE TR-FRET assay as described in the following paragraphs:
Recombinant fusion proteins of GST and human CDK2 and of GST and human CycE, expressed in insect cells (Sf9) and purified by Glutathion-Sepharose affinity chromatography, were purchased from ProQinase GmbH (Freiburg, Germany). As substrate for the kinase reaction biotinylated peptide biotin-Ttds-[…]

Test [2] has as its target CDK9/CycT1 (Homo sapiens (Human), UniProt P50750). Nature of the test: CDK9/CycT1 kinase assay (TR-FRET). The class given is biochemical. The conditions noted are these: Method 1. The text has this:
1. CDK9/CycT1 Kinase Assay:
CDK9/CycT1—inhibitory activity of compounds of the present invention was quantified employing the CDK9/CycT1 TR-FRET assay as described in the following paragraphs:
Recombinant full-length His-tagged human CDK9 and CycT1, expressed in insect cells and purified by Ni-NTA affinity chromatography, were purchased from Invitrogen (Cat. No PV4131). As substrate for the kinase reaction biotinylated peptide biotin-Ttds-[…]

CDK9/CycT1, sequence (P50750 whole entry): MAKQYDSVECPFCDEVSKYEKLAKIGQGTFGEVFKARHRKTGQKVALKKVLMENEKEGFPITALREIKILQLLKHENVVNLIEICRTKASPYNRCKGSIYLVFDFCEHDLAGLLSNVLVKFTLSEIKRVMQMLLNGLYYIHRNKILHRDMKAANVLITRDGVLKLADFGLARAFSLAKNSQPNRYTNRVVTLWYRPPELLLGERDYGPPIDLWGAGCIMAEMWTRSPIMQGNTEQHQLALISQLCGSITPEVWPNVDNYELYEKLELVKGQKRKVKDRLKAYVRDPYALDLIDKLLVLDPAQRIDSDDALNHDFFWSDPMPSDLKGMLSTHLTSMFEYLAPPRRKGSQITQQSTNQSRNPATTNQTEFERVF
CDK9/CycT1, sequence (O60563 whole entry partner): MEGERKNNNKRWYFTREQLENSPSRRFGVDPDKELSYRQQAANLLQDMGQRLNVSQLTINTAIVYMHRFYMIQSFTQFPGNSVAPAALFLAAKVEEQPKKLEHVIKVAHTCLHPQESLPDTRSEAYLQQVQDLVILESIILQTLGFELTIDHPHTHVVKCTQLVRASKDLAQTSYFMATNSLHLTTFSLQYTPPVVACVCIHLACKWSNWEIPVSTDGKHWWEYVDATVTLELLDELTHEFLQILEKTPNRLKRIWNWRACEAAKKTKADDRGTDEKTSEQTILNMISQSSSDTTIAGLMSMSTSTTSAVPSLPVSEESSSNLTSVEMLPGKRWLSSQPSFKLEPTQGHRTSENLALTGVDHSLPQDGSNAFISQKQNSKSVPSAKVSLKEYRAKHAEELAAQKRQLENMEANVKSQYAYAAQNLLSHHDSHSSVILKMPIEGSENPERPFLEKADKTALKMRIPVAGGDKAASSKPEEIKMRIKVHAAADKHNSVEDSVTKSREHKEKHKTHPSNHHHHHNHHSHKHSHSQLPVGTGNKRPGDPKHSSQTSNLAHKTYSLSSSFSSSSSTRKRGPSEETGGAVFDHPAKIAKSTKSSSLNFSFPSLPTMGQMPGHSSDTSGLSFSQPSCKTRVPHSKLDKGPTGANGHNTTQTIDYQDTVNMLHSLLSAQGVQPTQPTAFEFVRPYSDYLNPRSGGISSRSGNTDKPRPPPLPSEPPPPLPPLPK

Consider `CCOC(=O)N=S(C)(=O)Cc1cccc(Nc2ncnc(-c3cccc4c3OCC4)n2)c1` (racemic) [Example 33, (rac)-Ethyl [(3-{[4-(2,3-dihydro-1-benzofuran-7-yl)-1,3,5-triazin-2-yl]amino}benzyl)(methyl)oxido-λ^6-sulfanylidene]carbamate], for which the figures for the IC50 in test [1] and in test [2] were 3.1 µM and 0.021 µM, respectively.

Take `CS(=N)(=O)Cc1cccc(Nc2ncnc(-c3cccc4c3OCC4)n2)c1` (single isomer, unassigned) [Example 36, 4-(2,3-Dihydro-1-benzofuran-7-yl)-N-{3-[(S-methylsulfonimidoyl)methyl]phenyl}-1,3,5-triazin-2-amine]: the IC50 was found to be 2.9 µM in test [1] and 0.05 µM in test [2]. For `CS(=N)(=O)Cc1cccc(Nc2ncnc(-c3cccc4c3OCC4)n2)c1` (single isomer, unassigned) [Example 35, 4-(2,3-Dihydro-1-benzofuran-7-yl)-N-{3-[(S-methylsulfonimidoyl)methyl]phenyl}-1,3,5-triazin-2-amine] the same measures were 3.1 µM and 0.064 µM.

As to `CCOC(=O)N=S(C)(=O)Cc1cccc(Nc2ncnc(-c3ccc(F)cc3OC)n2)c1` (racemic) [Example 1, (rac)-Ethyl [(3-{[4-(4-fluoro-2-methoxyphenyl)-1,3,5-triazin-2-yl]amino}benzyl)(methyl)oxido-λ^6-sulfanylidene]carbamate], the IC50 in test [1] came out at 2.2 µM.

For the compound `CS(=N)(=O)Cc1cccc(Nc2ncnc(-c3cccc4c3OC(F)(F)O4)n2)c1` (racemic) [Example 19, (rac)-4-(2,2-Difluoro-1,3-benzodioxol-4-yl)-N-{3-[(S-methylsulfonimidoyl)methyl]phenyl}-1,3,5-triazin-2-amine], the IC50 stood at 2.1 µM in test [1] and 0.059 µM in test [2]. As for `COc1cc(F)ccc1-c1ncnc(Nc2cc(F)c(F)c(CS(C)(=N)=O)c2)n1` (racemic) [Example 106, (rac)-N-{3,4-Difluoro-5-[(S-methylsulfonimidoyl)methyl]phenyl}-4-(4-fluoro-2-methoxyphenyl)-1,3,5-triazin-2-amine], in test [1], inhibition was half-maximal at 0.4 µM (IC50). In test [2], `CC(Oc1cc(F)ccc1-c1ncnc(Nc2cccc(CS(C)(=N)=O)c2)n1)C1CCCC1` (stereo not drawn) [Example 63, 4-[2-(1-cyclopentylethoxy)-4-fluorophenyl]-N-{3-[(S-methylsulfonimidoyl)methyl]phenyl}-1,3,5-triazin-2-amine] registered a 50% inhibitory concentration (IC50) of 0.099 µM. Take `CCOC(=O)N=S(C)(=O)Cc1cccc(Nc2ncnc(-c3ccccc3Oc3ccccc3)n2)c1` (racemic) [Example 47, (rac)-Ethyl [methyl(oxido)(3-{[4-(2-phenoxyphenyl)-1,3,5-triazin-2-yl]amino}benzyl)-λ^6-sulfanylidene]carbamate]: the half-maximal inhibitory concentration (IC50) came out at 6.5 µM in test [1] and 0.035 µM in test [2]. In the case of `COc1cc(F)ccc1-c1ncnc(Nc2cc(F)cc(CS(C)(=N)=O)c2)n1` (single isomer, unassigned) [Example 53, 4-(4-Fluoro-2-methoxyphenyl)-N-{3-fluoro-5-[(S-methylsulfonimidoyl)methyl]phenyl}-1,3,5-triazin-2-amine], the half-inhibitory concentration (IC50) in test [1] is 0.54 µM. With `CS(=N)(=O)Cc1cccc(Nc2ncnc(-c3cccc4c3OCCO4)n2)c1` (racemic) [Example 38, (rac)-4-(2,3-Dihydro-1,4-benzodioxin-5-yl)-N-{3-[(S-methylsulfonimidoyl)methyl]phenyl}-1,3,5-triazin-2-amine], the IC50 in test [1] came out at 1.6 µM; in test [2], 0.014 µM. For `COc1ccccc1-c1ncnc(Nc2cccc(CS(C)(=N)=O)c2)n1` (racemic) [Example 26, (rac)-4-(2-Methoxyphenyl)-N-{3-[(S-methylsulfonimidoyl)methyl]phenyl}-1,3,5-triazin-2-amine], in that order: 4.6 µM and 0.035 µM. For `COc1ccccc1-c1ncnc(Nc2cccc(CS(C)(=N)=O)c2)n1` (single isomer, unassigned) [Example 28, 4-(2-Methoxyphenyl)-N-{3-[(S-methylsulfonimidoyl)methyl]phenyl}-1,3,5-triazin-2-amine] the same measures were 5.9 µM and 0.089 µM.

For the compound `COc1cc(Cl)ccc1-c1ncnc(Nc2cccc(CS(C)(=N)=O)c2)n1` (single isomer, unassigned) [Example 13, 4-(4-Chloro-2-methoxyphenyl)-N-{3-[(S-methylsulfonimidoyl)methyl]phenyl}-1,3,5-triazin-2-amine], the 50% inhibitory concentration (IC50) in test [1] was 9.5 µM; in test [2], 0.093 µM.

Take `COc1cc(F)ccc1-c1ncnc(Nc2cccc(CS(=N)(=O)C3CCOCC3)c2)n1` (racemic) [Example 58, (rac)-4-(4-Fluoro-2-methoxyphenyl)-N-(3-{[S-(tetrahydro-2H-pyran-4-yl)sulfonimidoyl]methyl}phenyl)-1,3,5-triazin-2-amine]: the IC50 in test [1] was determined as 5.2 µM; in test [2] it was 0.089 µM. As for `COc1cc(F)ccc1-c1ncnc(Nc2cccc(CS(=O)(=NC#N)C3CC3)c2)n1` (racemic) [Example 113, (rac)-[Cyclopropyl(3-{[4-(4-fluoro-2-methoxyphenyl)-1,3,5-triazin-2-yl]amino}benzyl)oxido-λ^6-sulfanylidene]cyanamide], the results for the IC50 in test [1] and in test [2] were 0.3 µM and 0.002 µM, respectively.

As for `CS(=N)(=O)Cc1cccc(Nc2ncnc(-c3ccc(F)cc3OCCC3CCOCC3)n2)c1` (racemic) [Example 57, (rac)-4-{4-Fluoro-2-[2-(tetrahydro-2H-pyran-4-yl)ethoxy]phenyl}-N-{3-[(S-methylsulfonimidoyl)methyl]phenyl}-1,3,5-triazin-2-amine], the IC50 in test [1] amounted to 8.3 µM; in test [2], 0.37 µM. For `CS(=N)(=O)Cc1cccc(Nc2ncnc(-c3cccc4c3OCC4)n2)c1` (racemic) [Example 34, (rac)-4-(2,3-Dihydro-1-benzofuran-7-yl)-N-{3-[(S-methylsulfonimidoyl)methyl]phenyl}-1,3,5-triazin-2-amine] the same measures were 2.2 µM and 0.068 µM.

As to `[2H]c1c([2H])c([2H])c(C([2H])([2H])Oc2cc(F)ccc2-c2ncnc(Nc3cccc(CS(C)(=N)=O)c3)n2)c([2H])c1[2H]` (racemic) [Example 62, (rac)-4-(4-Fluoro-2-{[(^2H5)phenyl(^2H2)methyl]oxy}phenyl)-N-{3-[(S-methylsulfonimidoyl)methyl]phenyl}-1,3,5-triazin-2-amine], the IC50 is 0.22 µM in test [1] and 0.007 µM in test [2].

Take `CCOC(=O)N=S(C)(=O)Cc1cccc(Nc2ncnc(-c3ccccc3OCc3ccc(Cl)c(Cl)c3)n2)c1` (racemic) [Example 60, (rac)-Ethyl [{3-[(4-{2-[(3,4-dichlorobenzyl)oxy]phenyl}-1,3,5-triazin-2-yl)amino]benzyl}(methyl)oxido-λ^6-sulfanylidene]carbamate]: the figures for the IC50 in test [1] and in test [2] were 3.3 µM and 0.013 µM, respectively.

As to `CS(=N)(=O)Cc1cccc(Nc2ncnc(-c3ccc(F)cc3OCc3ccccn3)n2)c1` (racemic) [Example 67, (rac)-4-[4-Fluoro-2-(pyridin-2-ylmethoxy)phenyl]-N-{3-[(S-methylsulfonimidoyl)methyl]phenyl}-1,3,5-triazin-2-amine], the IC50 turned out to be 6.9 µM in test [1] and 0.097 µM in test [2].
